Data on 13 molecules can be found in patent US5340808A, “Fused pyridazinoquinazolone derivatives as neurotrophic agents” (Warner Lambert Company, priority 1992, dated 1994).

Assay [1] deals with T1, p75 receptor (truncated form, residues 1-222) (Homo sapiens, UniProt P08138).
T1 construct: truncated form (residues 1-222, molecular weight=56 KDa) of the p75 receptor; biotin (chemical label, immobilised on streptavidin); purchased Chiron Corporation, Emeryville, Calif; (also commercially available from Austral Biologicals, Inc., San Diego, Calif.)
T1 sequence (P08138 29-250): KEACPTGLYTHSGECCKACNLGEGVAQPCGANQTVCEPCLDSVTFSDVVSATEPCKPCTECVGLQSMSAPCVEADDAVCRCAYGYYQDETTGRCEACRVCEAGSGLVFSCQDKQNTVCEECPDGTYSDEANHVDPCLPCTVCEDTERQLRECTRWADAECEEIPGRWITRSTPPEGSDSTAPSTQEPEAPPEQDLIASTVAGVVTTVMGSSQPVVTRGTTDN
In words: Inhibition of 125I-NGF binding to the NGF p75 receptor. As to conditions: 2 nM 125I-NGF, 2 hours at room temperature; for inhibition at 10 µM: at 10,000 nM, read-out: Inhibition of 125I-NGF Binding to p 75 (% inh); for IC50: read-out: Inhibition of 125I-NGF Binding to p 75 (IC50). On the procedure:
Binding assays of novel compounds to the NGF p75 receptor are performed using a truncated form (residues 1-222, molecular weight=56 KDa) of the p75 receptor, originally obtained from Chiron Corporation, Emeryville, Calif., but also commercially available from Austral Biologicals, Inc. (San Diego, Calif.), on plastic 96 well microtiter plates (Immulon II Dynatech). The wells are coated with 50 μl/well of 20 μg/ml streptavidin in a […] (DPBS). The plates are then incubated at room temperature for 6 hours. The excess streptavidin is then poured out, the wells are washed with a 0.1% solution of bovine serum albumin (BSA) in DPBS. To each well is then added […] of a DPBS solution containing the truncated p75 receptor, which has previously been reacted with biotin by standard procedures. The plates are then incubated at room temperature for 2 hours, and washed with 0.2% BSA/DPBS. To each well is added 98 μl of 2 nM ^125 I-NGF, followed by 2 μl/well of a concentration of test compound that is 50 times greater than the desired final test concentration. The plates are incubated for 2 hours at room temperature. […]

A further assay relates to sensory neuropathies. As to conditions: cited from earlier work.
In assay [2] the test system is basal forebrain cholinergic neurons. The note with it: cited from earlier work.
The subject of a further assay is Alzheimer's disease. The note with it: recent clinical findings in humans; cited from earlier work.
For assay [3], the system named is substantia nigra dopaminergic neurons. As to conditions: cited from earlier work.

As for `CC(=O)Nc1ccc2c(=O)n3nc(C(=O)O)ccc3nc2c1` [7 -Acetylamino-10-oxo-10H-pyridazino[6,1-b]quinazoline-2-carboxylic acid], the inhibition (commonly how much of the control response was suppressed) at 10 µM in assay [1] was 42%.
`Cc1ccc2c(=O)n3nc(C(=O)O)ccc3nc2c1` [7-Methyl-10-oxo-10H-pyridazino[6,1-b]quinazoline-2-carboxylic acid]: in assay [1], the IC50 (as a rule, the point on the concentration scale where inhibition reaches its midpoint) amounted to 4.9 µM.
Same read-out and setting: the result for `O=C(Nc1ccc2nc3ccc(C(=O)O)nn3c(=O)c2c1)c1ccccc1` [8-(Benzoylamino)-10-oxo-10H-pyridazino[6,1-b]-quinazoline-2-carboxylic acid] reads 0.067 µM; that for `O=C(O)c1ccc2nc3ccc(Cl)cc3c(=O)n2n1` [8-Chloro-10-oxo-10H-pyridazino[6,1-b]quinazoline-2-carboxylic acid], 4 µM.
Same read-out and setting: the result for `COc1ccc2nc3ccc(C(=O)O)nn3c(=O)c2c1` [8-Methoxy-10-oxo-10H-pyridazino[6,1-b]quinazoline-2-carboxylic acid] reads 1.5 µM; that for `Cc1ccc2nc3ccc(C(=O)O)nn3c(=O)c2c1` [8-Methyl-10-oxo-10H-pyridazino[6,1-b]quinazoline-2-carboxylic acid], 1.8 µM.
Still for that read-out and setting: the result for `Cc1ccc(C(=O)Nc2ccc3nc4ccc(C(=O)O)nn4c(=O)c3c2)cc1` [8-[(4-Methylbenzoyl)amino]-10-oxo-10H-pyridazino [6,1-b]quinazoline-2-carboxylic acid] reads 0.238 µM.
`O=C(O)c1ccc2c(=O)n3nc(C(=O)O)ccc3nc2c1` [10-Oxo-10H-pyridazino[6,1-b]quinazoline-2,7-dicarboxylic acid]: the inhibition at 10 µM in assay [1] was 46%.
Regarding `O=C(O)c1ccc2nc3ccc(C(=O)O)nn3c(=O)c2c1` [10-Oxo-10H-pyridazino[6,1-b]quinazoline-2,8-dicarboxylic acid], in assay [1], the IC50 stood at 2.19 µM.
As for `O=C(O)c1ccc2nc3ccccc3c(=O)n2n1` [10-Oxo-10H-pyridazino[6,1-b]quinazoline-2-carboxylic acid], the inhibition at 10 µM in assay [1] came out at 39%.
As to `O=C(O)c1ccc2nc3cc4ccccc4cc3c(=O)n2n1` [12-Oxo-12H-benzo[g]pyridazino[3,2-b]quinazoline-2-carboxylic acid], in assay [1], the IC50 lay within 0.344 to 0.369 µM.
“NGF: β-subunit, a dimer consisting of two equivalent monomers of approximately 13,000 dalton molecular weight”: in the assay on sensory neuropathies (cisplatin, animal model of diabetes-induced neuropathy), the “development of large-fiber sensory neuropathies from cisplatin, and animal model of diabetes-induced neuropathy” value was “efficacious”. Besides, the “development of small-fiber sensory neuropathies from taxol” value in the assay with sensory neuropathies (taxol) is “prevents the development of small-fiber sensory neuropathies”. Moreover, the “behavioral impairment associated with atrophied or lesioned basal forebrain cholinergic neurons” value in assay [2] (animals with atrophied or lesioned basal forebrain cholinergic neurons) is “reverse the associated behavioral impairment”. In assay [2] (chemical insult), the “ability of brain cholinergic neurons to survive a chemical insult” value was “enhances the ability of brain cholinergic neurons to survive a chemical insult”. For the same molecule, the “degeneration of neurons in the medial septal nucleus after lesion of the septo-hippocampal pathway” value in assay [2] (into the cerebrospinal fluid via a miniosmotic pump) is reported as “This neuronal degeneration can be prevented”. Moreover, the “usefulness in the treatment of AD” value in the assay on Alzheimer's disease is reported as “treatment with NGF is useful in the treatment of AD”.

B1: BDNF: member of the neurotrophins, a family of related neurotrophic peptides (protein, UniProt P23560 19-247, looked up)
Neurotrophic factor BDNF …: APMKEANIRGQGGLAYPGVRTHGTLESVNGPKAGSRGLTSLADTFEHVIEELLDEDQKVRPNEENNKDADLYTSRVMLSSQVPLEPPLLFLLEEYKNYLDAANMSMRVRRHSDPARRGELSVCDSISEWVTAADKKTAVDMSGGTVTVLEKVPVSKGQLKQYFYETKCNPMGYTKEGCRGIDKRHWNSQCRTTQSYVRALTMDSKKRIGWRFIRIDTSCVCTLTIKRGR
Take B1: in assay [3], the “neurotrophic effects on substantia nigra dopaminergic neurons” value is on record as “exerts neurotrophic effects on substantia nigra dopaminergic neurons”.
